# Experiments:
# HCT116 MTAP null cells = assay: HCT116 MTAP null cell proliferation / viability (CellTiter-Glo, 6 days); format: cell-based; conditions: HCT116-MTAP null, 144 h, HCT116 MTAP null cells, 6 days, CellTiter-Glo; read-out: HCT-116 MTAP null IC50
# Outline: (§1)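 CellTiter-Glo luminescence, 6-day exposure, RPMI 1640 + 10% FBS. Dosing: 1:3 series (8-9 pts, top 1 or 10 μM) or 1:2 series (22 pts, top 10 or 50 μM), DMSO control. IC50 = 50% of control via curve fit.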
# HCT116 WT cells = assay: HCT116 WT cell proliferation / viability (CellTiter-Glo, 6 days); format: cell-based; conditions: Homo sapiens, HCT-116, 144 h, HCT116 WT cells, 6 days, CellTiter-Glo; read-out: HCT-116 WT IC50
# Outline: as §1
Structure (SMILES),IC50 (HCT116 MTAP null cells),IC50 (HCT116 WT cells)
"Nc1nc2cc(Cl)c(C(=O)N(Cc3ccc(C(F)(F)F)nn3)C3CC3)cc2c2c1COC2 [Example 490, 4-amino-7-chloro-N-cyclopropyl-N-((6-(trifluoromethyl)-3-pyridazinyl)methyl)-1,3-dihydrofuro[3,4-c]quinoline-8-carboxamide]",87 nM,3480 nM
"Cn1cc(N(Cc2ccc(C(F)(F)F)cn2)C(=O)c2cc3c4c(c(N)nc3cn2)CCC4)cn1 [Example 492, 6-amino-N-(1-methyl-1H-pyrazol-4-yl)-N-((5-(trifluoromethyl)-2-pyridinyl)methyl)-8,9-dihydro-7H-cyclopenta[c][1,7]naphthyridine-2-carboxamide]",48 nM,622 nM
"Cn1cc(N(Cc2ccc(C(F)F)cn2)C(=O)c2cc3c4c(c(N)nc3cn2)CCC4)cn1 [Example 493, 6-amino-N-((5-(difluoromethyl)-2-pyridinyl)methyl)-N-(1-methyl-1H-pyrazol-4-yl)-8,9-dihydro-7H-cyclopenta[c][1,7]naphthyridine-2-carboxamide]",124 nM,1160 nM
"Cn1ncc2c3cc(C(=O)N(Cc4ccc(C(F)(F)F)cn4)C4(C)CC4)ccc3nc(N)c21 [Example 494, 4-amino-3-methyl-N-(1-methylcyclopropyl)-N-((5-(trifluoromethyl)-2-pyridinyl)methyl)-3H-pyrazolo[3,4-c]quinoline-8-carboxamide]",282 nM,9070 nM
"Cn1cc(N(Cc2ccc(C(F)(F)F)cn2)C(=O)c2ccc3nc(N)c4c(cnn4C)c3c2)cn1 [Example 495, 4-amino-3-methyl-N-(1-methyl-1H-pyrazol-4-yl)-N-((5-(trifluoromethyl)-2-pyridinyl)methyl)-3H-pyrazolo[3,4-c]quinoline-8-carboxamide]",79 nM,6360 nM
"CC(C)N(Cc1cnc(C(F)(F)F)cn1)C(=O)c1cc2c3c(c(N)nc2cc1F)COC3 [Example 496, 4-amino-7-fluoro-N-(2-propanyl)-N-((5-(trifluoromethyl)-2-pyrazinyl)methyl)-1,3-dihydrofuro[3,4-c]quinoline-8-carboxamide]",1270 nM,2240 nM
"CCN(Cc1cnc(C(F)(F)F)cn1)C(=O)c1cc2c3c(c(N)nc2cc1F)COC3 [Example 497, 4-amino-N-ethyl-7-fluoro-N-((5-(trifluoromethyl)-2-pyrazinyl)methyl)-1,3-dihydrofuro[3,4-c]quinoline-8-carboxamide]",250 nM,3520 nM
"CCN(Cc1cnc(C(F)(F)F)cn1)C(=O)c1cc2c3c(c(N)nc2cc1Cl)COC3 [Example 498, 4-amino-7-chloro-N-ethyl-N-((5-(trifluoromethyl)-2-pyrazinyl)methyl)-1,3-dihydrofuro[3,4-c]quinoline-8-carboxamide]",266 nM,12700 nM
"CC(C)N(Cc1cnc(C(F)(F)F)cn1)C(=O)c1cc2c3c(c(N)nc2cc1Cl)COC3 [Example 499, 4-amino-7-chloro-N-(2-propanyl)-N-((5-(trifluoromethyl)-2-pyrazinyl)methyl)-1,3-dihydrofuro[3,4-c]quinoline-8-carboxamide]",164 nM,4140 nM
"CCN(Cc1cnc(C(F)(F)F)cn1)C(=O)c1ccc2nc(N)c3c(c2c1)CO[C@@H]3C [Example 500, (3R)-4-amino-N-ethyl-3-methyl-N-((5-(trifluoromethyl)-2-pyrazinyl)methyl)-1,3-dihydrofuro[3,4-c]quinoline-8-carboxamide]",595 nM,32500 nM
"Nc1nc2cc(F)c(C(=O)N(Cc3ccc(C(F)(F)F)nn3)C3CCC3)cc2c2c1COC2 [Example 501, 4-amino-N-cyclobutyl-7-fluoro-N-((6-(trifluoromethyl)-3-pyridazinyl)methyl)-1,3-dihydrofuro[3,4-c]quinoline-8-carboxamide]",46 nM,1200 nM
"COc1cc2nc(N)c3c(c2cc1C(=O)N(C)Cc1ccc(C(F)(F)F)cn1)COC3 [Example 502, 4-amino-7-methoxy-N-methyl-N-((5-(trifluoromethyl)-2-pyridinyl)methyl)-1,3-dihydrofuro[3,4-c]quinoline-8-carboxamide]",3930 nM,47300 nM
"Cc1cc2nc(N)c3c(c2cc1C(=O)N(C)Cc1ccc(C(F)(F)F)cn1)COC3 [Example 503, 4-amino-N,7-dimethyl-N-((5-(trifluoromethyl)-2-pyridinyl)methyl)-1,3-dihydrofuro[3,4-c]quinoline-8-carboxamide]",56 nM,2000 nM
"Cn1ncc2c3cc(C(=O)N(Cc4ccc(C(F)(F)F)nn4)C4CCC4)c(F)cc3nc(N)c21 [Example 504, 4-amino-N-cyclobutyl-7-fluoro-3-methyl-N-((6-(trifluoromethyl)-3-pyridazinyl)methyl)-3H-pyrazolo[3,4-c]quinoline-8-carboxamide]",56 nM,1850 nM
"Nc1nc2cc(Cl)c(C(=O)N(Cc3ccc(C(F)(F)F)nn3)C3CCC3)cc2c2c1COC2 [Example 505, 4-amino-7-chloro-N-cyclobutyl-N-((6-(trifluoromethyl)-3-pyridazinyl)methyl)-1,3-dihydrofuro[3,4-c]quinoline-8-carboxamide]",22 nM,662 nM
"Cn1cc(N(Cc2ccc(C(F)(F)F)cn2)C(=O)c2cc3c(cc2F)nc(N)c2c3cnn2C)cn1 [Example 506, 4-amino-7-fluoro-3-methyl-N-(1-methyl-1H-pyrazol-4-yl)-N-((5-(trifluoromethyl)-2-pyridinyl)methyl)-3H-pyrazolo[3,4-c]quinoline-8-carboxamide]",9 nM,369 nM
"Cn1cc(N(Cc2ccc(C(F)(F)F)cn2)C(=O)c2cc3c(cn2)nc(N)c2cnn(C)c23)cn1 [Example 507, 4-amino-1-methyl-N-(1-methyl-1H-pyrazol-4-yl)-N-((5-(trifluoromethyl)-2-pyridinyl)methyl)-1H-pyrazolo[4,3-c][1,7]naphthyridine-8-carboxamide]",25 nM,373 nM
"C[C@H](c1ccc(C(F)(F)F)cn1)N(C(=O)c1cc2c(cc1F)nc(N)c1c2cnn1C)C1CC1 [Example 508, 4-amino-N-cyclopropyl-7-fluoro-3-methyl-N-((1R)-1-(5-(trifluoromethyl)-2-pyridinyl)ethyl)-3H-pyrazolo[3,4-c]quinoline-8-carboxamide]",60 nM,2840 nM
"Nc1nc2cc(F)c(C(=O)N(Cc3ccc(OC(F)F)nn3)C3CCC3)cc2c2c1COC2 [Example 509, 4-amino-N-cyclobutyl-N-((6-(difluoromethoxy)-3-pyridazinyl)methyl)-7-fluoro-1,3-dihydrofuro[3,4-c]quinoline-8-carboxamide]",40 nM,878 nM
"CN(Cc1ccc(S(F)(F)(F)(F)F)cc1)C(=O)c1ccc2nc(N)c3c(c2c1)COC3 [Example 510, 4-amino-N-methyl-N-(4-(pentafluoro-lambda~6~- sulfanyl)benzyl)-1,3-dihydrofuro[3,4-c]quinoline-8-carboxamide]",65 nM,2660 nM
"CN(Cc1ccc(S(F)(F)(F)(F)F)cc1)C(=O)c1cc2c3c(c(N)nc2cn1)COC3 [Example 511, 4-amino-N-methyl-N-(4-(pentafluoro-lambda~6~- sulfanyl)benzyl)-1,3-dihydrofuro[3,4-c][1,7]naphthyridine-8-carboxamide]",122 nM,4920 nM
"CN(Cc1ccc(S(F)(F)(F)(F)F)cc1)C(=O)c1cc2c3c(c(N)nc2cc1F)COC3 [Example 512, 4-amino-7-fluoro-N-methyl-N-(4-(pentafluoro-lambda~6~- sulfanyl)benzyl)-1,3-dihydrofuro[3,4-c]quinoline-8-carboxamide]",38 nM,1380 nM
"CN(Cc1ccc(S(F)(F)(F)(F)F)cc1)C(=O)c1cc2c3c(c(N)nc2cc1Cl)COC3 [Example 513, 4-amino-7-chloro-N-methyl-N-(4-(pentafluoro-lambda~6~- sulfanyl)benzyl)-1,3-dihydrofuro[3,4-c]quinoline-8-carboxamide]",19 nM,848 nM
"C[C@H]1OCc2c1c(N)nc1ccc(C(=O)N(C)Cc3ccc(S(F)(F)(F)(F)F)cc3)cc21 [Example 514, (3R)-4-amino-N,3-dimethyl-N-(4-(pentafluoro-lambda~6~- sulfanyl)benzyl)-1,3-dihydrofuro[3,4-c]quinoline-8-carboxamide]",71 nM,3250 nM
"CN(Cc1ccc(S(F)(F)(F)(F)F)cc1)C(=O)c1cc2c(cc1F)nc(N)c1c2cnn1C [Example 515, 4-amino-7-fluoro-N,3-dimethyl-N-(4-(pentafluoro-lambda~6~- sulfanyl)benzyl)-3H-pyrazolo[3,4-c]quinoline-8-carboxamide]",80 nM,3350 nM
"Cc1cc2nc(N)c3cnn(C)c3c2cc1C(=O)N(C)Cc1ccc(F)cn1 [Example 516, 4-amino-N-((5-fluoro-2-pyridinyl)methyl)-N,1,7-trimethyl-1H-pyrazolo[4,3-c]quinoline-8-carboxamide]",167 nM,9320 nM
"CN(Cc1ccc(C2CC2)nn1)C(=O)c1cc2c(cc1F)nc(N)c1c2cnn1C [Example 517, 4-amino-N-((6-cyclopropyl-3-pyridazinyl)methyl)-7-fluoro-N,3-dimethyl-3H-pyrazolo[3,4-c]quinoline-8-carboxamide]",706 nM,45400 nM
"CN(Cc1ccc(C2CC2)nn1)C(=O)c1cc2c(cc1F)nc(N)c1cnn(C)c12 [Example 518, 4-amino-N-((6-cyclopropyl-3-pyridazinyl)methyl)-7-fluoro-N,1-dimethyl-1H-pyrazolo[4,3-c]quinoline-8-carboxamide]",106 nM,6270 nM
